This note sets out measurements from patent publication US11014908B2, “Chemical compounds” (Pfizer Inc., priority 2018, dated 2021).

Assay [1] addresses T1, purified sickle cell hemoglobin (HbS) (Homo sapiens, UniProt P68871+P69905, E7V).
T1 construct: HbS was obtained from the blood of homozygous S/S patients; from tissue; host or cells: red blood cells of homozygous S/S patients
In words: Binding affinity to purified HbS by Surface Plasmon Resonance (SPR). The conditions noted are these: crosslinked biotinylated HbS, 1:1 binding model. The method, then:
Binding Affinity, Kd (uM)
The binding affinity for compounds to purified sickle cell hemoglobin (HbS) was determined using Surface Plasmon Resonance (SPR). Patient Sickle Cell blood was obtained from Boston Children's Hospital in accordance with Institutional Review Board protocols. HbS was obtained from the blood of homozygous S/S patients, and purified using the method described in: Antonini and Brunori, Hemoglobin and Myoglobin in their Reactions with Ligands. Amsterdam, London, North-Holland Publishing Company, 1971. Whole blood was separated into red blood cell and plasma components by centrifugation, after which the plasma was decanted and discarded. Packed red blood cells were washed with normal saline (0.9% NaCl) and then lysed by 2:1 dilution with cold deionized water. The hemolysate was centrifuged to remove cellular debris, and further purified with the addition of Drabkin's Buffer (2.8 M potassium phosphate), and centrifugation with Celite®. Organic phosphates (2,3-BPG) were removed via gel filtration with Sephadex® G-25. HbS and wild-type hemoglobin, hemoglobin A (HbA), were separated by […], using diethylaminoethyl (DEAE)-Sepharose® fast flow, and eluted using a pH gradient from pH 8.5-pH 7.5. Purity of the resulting HbS and HbA was determined by native gel electrophoresis and HbS fractions used further.
To stabilize the tetrameric structure of hemoglobin, HbS was crosslinked between the beta subunits (Lys82-Lys82) using bis(3,5-dibromosalicyl) fumarate, as described in: Shibayama N. et al, J Am Chem Soc 2014, 136, 13, 5097-5105 and Shibayama N. et al, Biochemistry 1991, 39, 33, 8158-8165). Crosslinked HbS was subsequently biotynylated and captured on a custom made Streptavidin sensor to achieve protein density of 4000 to 5000 resonance units (RUs) on the surface. Compound binding to HbS using SPR was tested on Sierra Sensors MASS-1 instrument. The running buffer contained 100 mM Potassium Phosphate, pH 7.5, 0.005% Tween-20, 1 mM ethylenediaminetetraacetic acid (EDTA), 0.1 mg/mL bovine serum albumin with 1% DMSO. Compound samples were injected at a flow rate of 30 μL/min for 2 minutes association and at least 5 minutes of dissociation time. A 2- or 3-fold dilution series containing at least 4 concentrations were tested for each compound. The dose range was selected based on the activity of the compounds in biochemical assays, when available. Multiple blank injections of running buffer were run before and after each compound series to allow blank subtraction for compound data in the analysis software. Positive controls were run in each experiment to monitor and maintain the activity of HbS on the surface. A DMSO curve was run at the beginning of each data set to apply an excluded volume correction to the data during analysis. The data were processed and analyzed using Sierra Sensors and Scrubber 2.0 software. The binding affinities (dissociation constant Kd) were calculated by fitting the sensorgrams to a 1:1 binding model.

Another assay deals with T2, HbS (Homo sapiens, UniProt P68871+P69905, E7V).
T2 construct: HbS was obtained from the blood of homozygous S/S patients; from tissue; host or cells: red blood cells of homozygous S/S patients
In words: 'R'-'T' assay (conversion of oxy HbS to deoxy HbS under deoxygenating conditions). The conditions noted are these: 50% inhibition of HbS 'R'-'T' conversion; 3 uM HbS, <1% O2. It is filed as biochemical. The method, then: Conversion from oxy (R, relaxed state) to deoxy (T, tense state) HbS in the presence of compound was performed to determine the ability of compounds to stabilize the oxy (R) state under deoxygenating conditions. The assay run was similar to the ‘Oxygen dissociation assay’ described in Oksenberg et al, Br J Haematology, 2016, 175, 141-153.
Assay ready compound plates were prepared by first preparing a master serial dilution plate from a 30 mM initial compound stock in 100% DMSO. From this master serial dilution plate, 167 nL of the desired compound concentration was delivered to the assay ready plates using acoustical dispensing. Plates were frozen at −20° C. until needed. Purified HbS-O2 (i.e. oxy HbS) was diluted to 3 uM in 100 mM potassium phosphate buffer, pH=7.4. 50 uL of 3 uM stock solution was added to each well of the assay ready plate and mechanically mixed eight times. Following mixing the plates were covered and incubated at room temperature for one hour with moderate shaking. Following incubation, the plates were placed in a deoxygenated environment (<1% O2) for two hours, and the conversion to deoxy HbS monitored as a function of time. Oxygenated and deoxygenated forms of hemoglobin were detected using the absorbance of the Soret peaks at 415 and 430 nm respectively, and absorbance measurements (optical density, OD) were taken at 0, 90 and 120 minutes. Background absorbance for correction was collected at 700 nm.
Data were analyzed by first subtracting baseline absorbance at 700 nm from 415 nm and 430 nm data at each timepoint, and then taking the ratio of 415/430 nm data (Ratio=[(OD415−OD700)/(OD430−OD700)]. The effect at each timepoint was calculated using the ratios from the previous calculation at time 0 and each time point of interest (Effect^time x=Ratio^time x/Ratio^time 0). Percent effect was calculated by comparing the effects of compound versus HbS only with the effects observed by the positive control compound tucaresol (percent effect=[(effect^time x compound−effect^time x HbS)/(effect^time x tucaresol−effect^time x HbS)]×100). Data were reported as the percent effect for a single point. Calculations to determine the concentration of compound for 50% inhibition (IC50 (uM)) of the HbS ‘R’-‘T’ conversion were based on the percent effect at varying compound concentration.

As usually defined, the Kd is the concentration at which binding is half-saturated. Lower therefore signals tighter binding. What is called IC50 is the concentration that gives 50% inhibition. In assay [1], `C[C@H](Oc1cc2cc(Br)ccc2nc1N)c1ncc(F)cc1-n1cccn1` [Example 25, 6-bromo-3-{(1S)-1-[5-fluoro-3-(1H-pyrazol-1-yl)pyridin-2-yl]ethoxy}quinolin-2-amine] displayed a Kd of 67 nM. Further, on HbS, the IC50 turned out to be 4780 nM.

In the case of `C[C@H](Oc1cc2cc(F)cc(F)c2nc1N)c1cc2c(cnn2CCO)cc1-n1cccn1` [Example 72, 2-[6-{(1S)-1-[(2-amino-6,8-difluoroquinolin-3-yl)oxy]ethyl}-5-(1H-pyrazol-1-yl)-1H-indazol-1-yl]ethanol], the Kd in assay [1] is 11 nM. At HbS, the IC50 was 3030 nM.

The molecule `C[C@H](Oc1cc2cc(CO)ccc2nc1N)c1nc(O)ccc1-n1cccn1` [Example 49, 6-[(1S)-1-{[2-amino-6-(hydroxymethyl)quinolin-3-yl]oxy}ethyl]-5-(1H-pyrazol-1-yl)pyridin-2-ol] displayed a Kd in assay [1] of 178 nM. On HbS, this molecule yielded an IC50 of 6390 nM.

As to `C[C@H](Oc1cc2ncccc2nc1N)c1nc(O)ccc1-n1cccn1` [Example 47, 6-{(1S)-1-[(2-amino-1,5-naphthyridin-3-yl)oxy]ethyl}-5-(1H-pyrazol-1-yl)pyridin-2-ol], in assay [1], the Kd was 384 nM. The molecule further had an IC50 at HbS of 6320 nM.

`C[C@H](Oc1cc2cc([C@@H](C)O)ccc2nc1N)c1nc(O)ccc1-n1cccn1` [Example 51, 6-[(1S)-1-({2-amino-6-[(1R)-1-hydroxyethyl]quinolin-3-yl}oxy)ethyl]-5-(1H-pyrazol-1-yl)pyridin-2-ol] came in with a Kd in assay [1] of 6880 nM. The same molecule returned a half-inhibitory concentration (IC50) against HbS of 52100 nM.

Regarding `C[C@H](Oc1cc2cc(F)ccc2nc1N)c1cc(S(N)(=O)=O)ccc1-n1cccn1` [Example 7, 3-{(1S)-1-[(2-amino-6-fluoroquinolin-3-yl)oxy]ethyl}-4-(1H-pyrazol-1-yl)benzenesulfonamide], the Kd in assay [1] stood at 126 nM.

Molecule `C[C@H](Oc1cc2cc(F)ccc2nc1N)c1cc2nn(CC(=O)O)cc2cc1-n1cccn1` [Example 71, [6-{(1S)-1-[(2-amino-6-fluoroquinolin-3-yl)oxy]ethyl}-5-(1H-pyrazol-1-yl)-2H-indazol-2-yl]acetic Acid] showed a Kd in assay [1] of 48 nM. Further, on HbS, the IC50 came to 4610 nM.

On to `C[C@H](Oc1cc2cc(C(N)=O)cc(F)c2nc1N)c1ncc(F)cc1-n1cccn1` [Example 35, 2-amino-8-fluoro-3-{(1S)-1-[5-fluoro-3-(1H-pyrazol-1-yl)pyridin-2-yl]ethoxy}quinoline-6-carboxamide], for which binding in assay [1] was characterised by a dissociation constant (Kd) of 68 nM. Besides, it took 3930 nM to reach half-maximal inhibition against HbS (IC50).

For `C[C@H](Oc1cc2cc(C(N)=O)ccc2nc1N)c1nc(O)ccc1-n1cccn1` [Example 44, 2-amino-3-{(1S)-1-[6-hydroxy-3-(1H-pyrazol-1-yl)pyridin-2-yl]ethoxy}quinoline-6-carboxamide], the Kd in assay [1] is 63 nM. Besides, on HbS, the concentration for half-maximal inhibition (IC50) was found to be 4400 nM.

Turning to `C[C@H](Oc1cc2cc(F)ccc2nc1N)c1cc2[nH]cnc2cc1-n1cccn1` [Example 63, 6-fluoro-3-{(1S)-1-[5-(1H-pyrazol-1-yl)-1H-benzimidazol-6-yl]ethoxy}quinolin-2-amine], the Kd in assay [1] came out at 152 nM. This molecule also showed an IC50 against HbS of 8360 nM.

In the case of `C[C@H](Oc1cc2cc(F)cc(F)c2nc1N)c1cc(C(=O)NS(C)(=O)=O)ccc1-n1cccn1` [Example 24, 3-{(1S)-1-[(2-amino-6,8-difluoroquinolin-3-yl)oxy]ethyl}-N-(methylsulfonyl)-4-(1H-pyrazol-1-yl)benzamide], binding in assay [1] was put at a Kd of 15 nM. In addition, at HbS, the IC50 was determined as 4660 nM.

The molecule `Cc1nc2cc(-n3cccn3)c([C@H](C)Oc3cc4cc(F)ccc4nc3N)cc2[nH]1` [Example 64, 6-fluoro-3-{(1S)-1-[2-methyl-5-(1H-pyrazol-1-yl)-1H-benzimidazol-6-yl]ethoxy}quinolin-2-amine] showed a Kd in assay [1] of 220 nM. This molecule also registered an IC50 at HbS of 5730 nM.

In assay [1], `C[C@H](Oc1cc2cc(F)c(Cl)cc2nc1N)c1cc2[nH]ncc2cc1-n1cccn1` [Example 60, 7-chloro-6-fluoro-3-{(1S)-1-[5-(1H-pyrazol-1-yl)-1H-indazol-6-yl]ethoxy}quinolin-2-amine] displayed a Kd of 55 nM. The IC50 against HbS turned out to be 4110 nM.

In the case of `C[C@H](Oc1cc2cc(C(N)=O)c(F)cc2nc1N)c1ncc(F)cc1-n1cccn1` [Example 34, 2-amino-7-fluoro-3-{(1S)-1-[5-fluoro-3-(1H-pyrazol-1-yl)pyridin-2-yl]ethoxy}quinoline-6-carboxamide], the Kd in assay [1] is 121 nM. The same molecule displayed an IC50 against HbS of 5530 nM.

For the molecule `Cc1ccc2nc(N)c(O[C@@H](C)c3nc(O)ccc3-n3cccn3)cc2n1` [Example 54, 6-{(1S)-1-[(2-amino-6-methyl-1,5-naphthyridin-3-yl)oxy]ethyl}-5-(1H-pyrazol-1-yl)pyridin-2-ol], binding in assay [1] was characterised by a dissociation constant (Kd) of 892 nM. Also, on HbS, half-maximal inhibition (IC50) was put at 11200 nM.

In assay [1], `C[C@H](Oc1cc2cc(F)ccc2nc1N)c1nc2[nH]ncc2cc1-n1cccn1` [Example 68, 6-fluoro-3-{(1S)-1-[5-(1H-pyrazol-1-yl)-1H-pyrazolo[3,4-b]pyridin-6-yl]ethoxy}quinolin-2-amine] displayed a Kd of 15 nM. For the same molecule, at HbS, the IC50 was 4610 nM.

With `C[C@H](Oc1cc2cc(F)ccc2nc1N)c1cc(-c2n[nH]c(=O)o2)ccc1-n1cccn1` [Example 5, 5-[3-{(1S)-1-[(2-amino-6-fluoroquinolin-3-yl)oxy]ethyl}-4-(1H-pyrazol-1-yl)phenyl]-1,3,4-oxadiazol-2(3H)-one], the Kd in assay [1] is 14 nM. Also, the IC50 against HbS came to 4380 nM.

For the molecule `C[C@H](Oc1cc2cc(F)c(Cl)cc2nc1N)c1ncc(F)cc1-n1cccn1` [Example 31, 7-chloro-6-fluoro-3-{(1S)-1-[5-fluoro-3-(1H-pyrazol-1-yl)pyridin-2-yl]ethoxy}quinolin-2-amine], the Kd in assay [1] is 69 nM. Besides, the half-maximal inhibitory concentration (IC50) against HbS turned out to be 4960 nM.

`C[C@H](Oc1cc2cc(C(N)=O)c(F)cc2nc1N)c1nc2[nH]ncc2cc1-n1cccn1` [Example 76, 2-amino-7-fluoro-3-{(1S)-1-[5-(1H-pyrazol-1-yl)-1H-pyrazolo[3,4-b]pyridin-6-yl]ethoxy}quinoline-6-carboxamide]: binding in assay [1] was put at a Kd of 14 nM. In addition, on HbS, the IC50 turned out to be 28900 nM.

In assay [1], `C[C@H](Oc1cc2cc(F)cc(F)c2nc1N)c1cc(-c2noc(=O)[nH]2)ccc1-n1cccn1` [Example 80, (S)-3-(3-(1-((2-amino-6,8-difluoroquinolin-3-yl)oxy)ethyl)-4-(1H-pyrazol-1-yl)phenyl)-1,2,4-oxadiazol-5(4H)-one] had a Kd of 36 nM.

`C[C@H](Oc1cc2cc(C(N)=O)ccc2nc1N)c1nc2[nH]ncc2cc1-n1cccn1` [Example 62, 2-amino-3-{(1S)-1-[5-(1H-pyrazol-1-yl)-1H-pyrazolo[3,4-b]pyridin-6-yl]ethoxy}quinoline-6-carboxamide] returned a dissociation constant (Kd) in assay [1] of 40 nM.
